# Experimental data taken from patent US20220030868A1, “FUNGICIDAL HALOMETHYL KETONES AND HYDRATES” (FMC CORPORATION, priority 2018, published 2022).
# How the values were obtained:
# [1] = tested on: Puccinia recondita f. sp. tritici; test: Test B: test suspension sprayed on wheat seedlings one day before inoculation with Puccinia recondita f. sp. tritici spores (wheat leaf rust), disease rating; format: in vivo; settings: 100 = 100% disease control, 0 = no control; for Test B rating (disease control) / pest or weed control at 10 ppm: 10 ppm test suspension; for pest or weed control at 50 ppm: 50 ppm test suspension
# Method in brief: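 Wheat seedlings were sprayed to run-off with compound suspended in 50/50 acetone/water containing 250 ppm PEG400, then inoculated with P. recondita f. sp. tritici spores the next day. Plants were held 24 h in saturated air at 20 °C, then 6 days in a growth chamber at 20 °C. Disease control was rated 0–100% relative to controls, with some entries run at 50 or 10 ppm.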
# Phakopsora pachyrhizi = test: Test A: test suspension sprayed on soybean seedlings one day before inoculation with Phakopsora pachyrhizi spores (Asian soybean rust), visual disease rating; format: in vivo; settings: 100 = 100% disease control, 0 = no control; for Test A rating (disease control) / pest or weed control at 10 ppm: 10 ppm test suspension; for pest or weed control at 50 ppm / pest or weed control at 10 ppm: Phakopsora pachyrhizi; for pest or weed control at 50 ppm: 50 ppm test suspension
# Method in brief: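 Compound dissolved in acetone (3% of final volume), then suspended at the stated ppm in 50/50 acetone/water with 250 ppm PEG400 surfactant; sprayed to run-off on soybean seedlings, inoculated with P. pachyrhizi spores next day. Held saturated at 22° C for 24 h, then 8 days at 22° C; visual rating as % disease control versus controls.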
Structure (SMILES),Test B rating (disease control) [1],Test A rating (disease control) (Phakopsora pachyrhizi),also measured
CCO/C(=C\Oc1ccc(Cc2nc(C(=O)NCC3CC3)cs2)cc1)C(F)(F)F [compound 130],0%,100%,
CCOC(=O)c1cnn(CCc2ccc(OCC3(C(F)(F)F)OCCO3)cc2)c1 [compound 133],0%,79%,
O=C(OCC(F)(F)F)c1cnn(Cc2ccc(OCC3(C(F)(F)F)OCCO3)cc2)c1 [compound 134],32%,89%,
CCO/C(=C\Oc1ccc(Cn2cc(C(=O)OC(C)C)cn2)cc1)C(F)(F)F [compound 139],0%,100%,
CCOC(=O)c1cnn(Cc2ccc(C/C=C(\OCC)C(F)(F)F)cc2)c1 [compound 140],23%,98%,
CCOC(=O)c1cnn(Cc2ccc(COCC3(C(F)(F)F)OCCO3)cc2)c1 [compound 141],0%,0%,
CCO/C(=C\Oc1ccc(-c2noc(C(F)(F)F)n2)cc1)C(F)(F)F [compound 143],0%,0%,
CCO/C(=C\Oc1ccc(C#N)cc1)C(F)(F)F [compound 144],0%,78%,
CCOC(=O)c1cnn(Cc2ccc(O/C=C(\OCCO)C(F)(F)F)cc2)c1 [compound 145],0%,82%,
CCOC(=O)c1cnn(Cc2cccc(OCC3(C(F)(F)F)OCCO3)c2)c1 [compound 146],,,pest or weed control at 50 ppm [1]: 0%; pest or weed control at 50 ppm (Phakopsora pachyrhizi): 60%
N#Cc1cccc(OCC2(C(F)(F)F)OCCO2)c1 [compound 147],,,pest or weed control at 50 ppm [1]: 0%; pest or weed control at 50 ppm (Phakopsora pachyrhizi): 77%
CCO/C(=C\Oc1ccc(C=O)cc1)C(F)(F)F [compound 148],0%,0%,
CCO/C(=C\Oc1ccc(CNS(=O)(=O)CC)cc1)C(F)(F)F [compound 149],0%,0%,
CCO/C(=C\Oc1ccc(CNC(=O)CC)cc1)C(F)(F)F [compound 150],0%,33%,
CCO/C(=C\Oc1ccc(Cn2cccn2)cc1)C(F)(F)F [compound 151],0%,0%,
CCO/C(=C\Oc1ccc(Cn2nc(C)cc2C)cc1)C(F)(F)F [compound 152],0%,0%,
CCOC(=O)c1cn(Cc2ccc(O/C=C(\OCC)C(F)(F)F)cc2)cn1 [compound 153],0%,100%,
CCO/C(=C\Oc1ccc(CC#N)cc1)C(F)(F)F [compound 154],0%,0%,
CCO/C(=C\Oc1ccc(CSC#N)cc1)C(F)(F)F [compound 155],0%,0%,
CCO/C(=C\Oc1ccc(Cn2ccnc2)cc1)C(F)(F)F [compound 156],0%,0%,

Structure (SMILES),Test B rating (disease control) [1],Test A rating (disease control) (Phakopsora pachyrhizi),also measured
CCO/C(=C\Oc1ccc(Cn2ccc(C)n2)cc1)C(F)(F)F [compound 158],0%,0%,
CCOC(=O)c1ccc2c(cnn2Cc2ccc(OCC3(C(F)(F)F)OCCO3)cc2)c1 [compound 160],0%,13%,
O=C(OCCCCl)c1cnn(Cc2ccc(OCC3(C(F)(F)F)OCCO3)cc2)c1 [compound 161],0%,100%,
N#CCNC(=O)c1cnn(Cc2ccc(OCC3(C(F)(F)F)OCCO3)cc2)c1 [compound 164],0%,31%,
O=[N+]([O-])c1cccc(OCC2(C(F)(F)F)OCCO2)c1 [compound 165],,,pest or weed control at 10 ppm [1]: 0%; pest or weed control at 10 ppm (Phakopsora pachyrhizi): 0%
O=[N+]([O-])c1ccc(OCC2(C(F)(F)F)OCCO2)cc1 [compound 166],95%,100%,
CCOC(=O)c1cnn(Cc2ccc(CO/C=C(\OCC)C(F)(F)F)cc2)c1 [compound 167],0%,38%,
CCOC(=O)c1cnn(Cc2ccc(OCC3(C(F)(F)F)OCCO3)nc2)c1 [compound 168],,,pest or weed control at 10 ppm [1]: 0%; pest or weed control at 10 ppm (Phakopsora pachyrhizi): 0%
CC(=O)COC(=O)c1cnn(Cc2ccc(OCC3(C(F)(F)F)OCCO3)cc2)c1 [compound 169],0%,100%,
N#CCOC(=O)c1cnn(Cc2ccc(OCC3(C(F)(F)F)OCCO3)cc2)c1 [compound 172],0%,100%,
FC(F)(F)c1nc(-c2ccc(OCC3(C(F)(F)F)OCCO3)cc2)no1 [compound 173],0%,0%,
NCc1ccc(OCC2(C(F)(F)F)OCCO2)cc1 [compound 174],0%,0%,
CC(C)C(=O)NCc1ccc(OCC2(C(F)(F)F)OCCO2)cc1 [compound 175],0%,0%,
O=C(NCc1ccc(OCC2(C(F)(F)F)OCCO2)cc1)C1CC1 [compound 176],0%,0%,
OCc1ccc(OCC2(C(F)(F)F)OCCO2)cc1 [compound 178],0%,0%,
O=C(NCc1ccc(OCC2(C(F)(F)F)OCCO2)cc1)c1cccc(C(F)(F)F)c1 [compound 179],0%,0%,
CCO/C(=C\Oc1ccc(Cn2cc(Cl)cn2)cc1)C(F)(F)F [compound 180],0%,0%,
CCO/C(=C\Oc1ccc(Cn2ccc(C(F)(F)F)n2)cc1)C(F)(F)F [compound 181],0%,0%,
CCO/C(=C\Oc1ccc(Cn2cc(C(F)(F)F)cn2)cc1)C(F)(F)F [compound 182],0%,0%,
CCO/C(=C\Oc1ccc(Cn2cc(Br)cn2)cc1)C(F)(F)F [compound 183],0%,0%,

Structure (SMILES),Test B rating (disease control) [1],Test A rating (disease control) (Phakopsora pachyrhizi),also measured
CCO/C(=C\Oc1ccc(CN2C(=O)c3ccccc3C2=O)cc1)C(F)(F)F [compound 184],0%,0%,
C=CCOC(=O)c1cnn(Cc2ccc(OCC3(C(F)(F)F)OCCO3)cc2)c1 [compound 188],0%,100%,
COC(=O)c1ccc(OCC2(C(F)(F)F)OCCO2)cc1 [compound 189],0%,0%,
FC(F)(F)C1(COc2ccc(-c3ccccc3)cc2)OCCO1 [compound 190],0%,0%,
FC(F)(F)C1(COc2ccc(Oc3ccccc3)cc2)OCCO1 [compound 191],0%,0%,
FC(F)(F)C1(COc2ccc(Cc3ccccc3)cc2)OCCO1 [compound 192],0%,0%,
CCO/C(=C\Oc1ccc(COC(N)=O)cc1)C(F)(F)F [compound 193],86%,0%,
CCO/C(=C\Oc1ccc(CO)cc1)C(F)(F)F [compound 195],0%,0%,
CCNC(=O)OCc1ccc(O/C=C(\OCC)C(F)(F)F)cc1 [compound 196],74%,0%,
O=C(NCC(F)(F)F)c1cnn(Cc2ccc(OCC3(C(F)(F)F)OCCO3)cc2)c1 [compound 197],0%,0%,
CN(C)C(=O)c1cnn(Cc2ccc(OCC3(C(F)(F)F)OCCO3)cc2)c1 [compound 198],0%,0%,
O=C(OCc1ccccn1)c1cnn(Cc2ccc(OCC3(C(F)(F)F)OCCO3)cc2)c1 [compound 199],0%,100%,
O=C(OCc1cccnc1)c1cnn(Cc2ccc(OCC3(C(F)(F)F)OCCO3)cc2)c1 [compound 200],0%,100%,
O=C(OCc1ccncc1)c1cnn(Cc2ccc(OCC3(C(F)(F)F)OCCO3)cc2)c1 [compound 201],0%,100%,
O=C(OCC(=O)C1CCCCC1)c1cnn(Cc2ccc(OCC3(C(F)(F)F)OCCO3)cc2)c1 [compound 202],0%,100%,
COC(=O)COC(=O)c1cnn(Cc2ccc(OCC3(C(F)(F)F)OCCO3)cc2)c1 [compound 203],0%,50%,
O=C(OCC1OCCO1)c1cnn(Cc2ccc(OCC3(C(F)(F)F)OCCO3)cc2)c1 [compound 204],0%,100%,
CCO/C(=C\Oc1ccc(Cn2cc(C#N)cn2)cc1)C(F)(F)F [compound 205],0%,0%,
